Measurements reported in ChEMBL document CHEMBL3046822, “Synthesis, antiplatelet aggregation activity, and molecular modeling study of novel substituted-piperazine analogues” (2011).
Active and inactive are the calls of the source. No cut-off for these calls is given here.

How the values were obtained:
[1] = Antiaggregating activity in Homo sapiens (human) platelet rich plasma assessed as ristocetin-induced platelet aggregation at 1 uM incubated for 4 min prior to ristocetin-induction measured for 5.5 min by turbidometric analysis (reference value: 65 to 99%); type: functional
[2] = Antiaggregating activity in Homo sapiens (human) platelet rich plasma assessed as arachidonic acid-induced platelet aggregation at 1 uM incubated for 4 min prior to arachidonic acid-induction measured for 5.5 min by turbidometric analysis (reference value: 55 to 100%); type: functional
[3] = Antiaggregating activity in Homo sapiens (human) platelet rich plasma assessed as adrenaline-induced platelet aggregation at 2 uM incubated for 4 min prior to adrenaline-induction measured for 5.5 min by turbidometric analysis (reference value: 65 to 100%); type: functional
[4] = tested on: Platelet; assay: Antiaggregating activity in Homo sapiens (human) platelet rich plasma assessed as inhibition of collagen-induced platelet aggregation at 5 uM incubated for 4 min prior to collagen-induction measured for 5.5 min by turbidometric analysis; type: functional, cell-free
[5] = Antiaggregating activity in Homo sapiens (human) platelet rich plasma assessed as collagen-induced platelet aggregation at 2 uM incubated for 4 min prior to collagen-induction measured for 5.5 min by turbidometric analysis (reference value: 50 to 98%); type: functional
[6] = Antiaggregating activity in Homo sapiens (human) platelet rich plasma assessed as ADP-induced platelet aggregation at 1 uM incubated for 4 min prior to ADP-induction measured for 5.5 min by turbidometric analysis (reference value: 54 to 88%); type: functional
[7] = Antiaggregating activity in Homo sapiens (human) platelet rich plasma assessed as disaggregation of ADP-induced platelet aggregation at 5 uM incubated for 4 min prior to ADP-induction measured for 5.5 min by turbidometric analysis relative to control; type: functional
[8] = Antiaggregating activity in Homo sapiens (human) platelet rich plasma assessed as adrenaline-induced platelet aggregation at 1 uM incubated for 4 min prior to adrenaline-induction measured for 5.5 min by turbidometric analysis (reference value: 65 to 100%); type: functional
[9] = Antiaggregating activity in Homo sapiens (human) platelet rich plasma assessed as disaggregation of arachidonic acid-induced platelet aggregation at 2 uM incubated for 4 min prior to arachidonic acid-induction measured for 5.5 min by turbidometric analysis relative to control; type: functional
[10] = Antiaggregating activity in Homo sapiens (human) platelet rich plasma assessed as collagen-induced platelet aggregation at 1 uM incubated for 4 min prior to collagen-induction measured for 5.5 min by turbidometric analysis (reference value: 50 to 98%); type: functional
[11] = tested on: Platelet; assay: Antiaggregating activity in Homo sapiens (human) platelet rich plasma assessed as inhibition of adrenaline-induced platelet aggregation at 5 uM incubated for 4 min prior to adrenaline-induction measured for 5.5 min by turbidometric analysis; type: functional, cell-free
[12] = tested on: Platelet; assay: Antiaggregating activity in Homo sapiens (human) platelet rich plasma assessed as inhibition of arachidonic acid-induced platelet aggregation at 5 uM incubated for 4 min prior to arachidonic acid-induction measured for 5.5 min by turbidometric analysis; type: functional, cell-free
[13] = Antiaggregating activity in Homo sapiens (human) platelet rich plasma assessed as ADP-induced platelet aggregation at 2 uM incubated for 4 min prior to ADP-induction measured for 5.5 min by turbidometric analysis (reference value: 54 to 88%); type: functional
[14] = Antiaggregating activity in Homo sapiens (human) platelet rich plasma assessed as ristocetin-induced platelet aggregation at 5 uM incubated for 4 min prior to ristocetin-induction measured for 5.5 min by turbidometric analysis (reference value: 65 to 99%); type: functional
[15] = Antiaggregating activity in Homo sapiens (human) platelet rich plasma assessed as ristocetin-induced platelet aggregation at 2 uM incubated for 4 min prior to ristocetin-induction measured for 5.5 min by turbidometric analysis (reference value: 65 to 99%); type: functional
[16] = Antiaggregating activity in Homo sapiens (human) platelet rich plasma assessed as ADP-induced platelet aggregation at 10 uM incubated for 4 min prior to ADP-induction measured for 5.5 min by turbidometric analysis (reference value: 54 to 88%); type: functional
[17] = tested on: Platelet; assay: Antiaggregating activity in Homo sapiens (human) platelet rich plasma assessed as inhibition of arachidonic acid-induced platelet aggregation at 50 uM incubated for 4 min prior to arachidonic acid-induction measured for 5.5 min by turbidometric analysis; type: functional, cell-free
[18] = Antiaggregating activity in Homo sapiens (human) platelet rich plasma assessed as adrenaline-induced platelet aggregation at 10 uM incubated for 4 min prior to adrenaline-induction measured for 5.5 min by turbidometric analysis (reference value: 65 to 100%); type: functional
[19] = Antiaggregating activity in Homo sapiens (human) platelet rich plasma assessed as ristocetin-induced platelet aggregation at 10 uM incubated for 4 min prior to ristocetin-induction measured for 5.5 min by turbidometric analysis (reference value: 65 to 99%); type: functional
[20] = tested on: Platelet; assay: Antiaggregating activity in Homo sapiens (human) platelet rich plasma assessed as inhibition of ADP-induced platelet aggregation at 50 uM incubated for 4 min prior to ADP-induction measured for 5.5 min by turbidometric analysis; type: functional, cell-free
[21] = Antiaggregating activity in Homo sapiens (human) platelet rich plasma assessed as ristocetin-induced platelet aggregation at 50 uM incubated for 4 min prior to ristocetin-induction measured for 5.5 min by turbidometric analysis (reference value: 65 to 99%); type: functional
[22] = Antiaggregating activity in Homo sapiens (human) platelet rich plasma assessed as collagen-induced platelet aggregation at 10 uM incubated for 4 min prior to collagen-induction measured for 5.5 min by turbidometric analysis (reference value: 50 to 98%); type: functional
[23] = tested on: Platelet; assay: Antiaggregating activity in Homo sapiens (human) platelet rich plasma assessed as inhibition of adrenaline-induced platelet aggregation at 50 uM incubated for 4 min prior to adrenaline-induction measured for 5.5 min by turbidometric analysis; type: functional, cell-free
[24] = Antiaggregating activity in Homo sapiens (human) platelet rich plasma assessed as arachidonic acid-induced platelet aggregation at 10 uM incubated for 4 min prior to arachidonic acid-induction measured for 5.5 min by turbidometric analysis (reference value: 55 to 100%); type: functional
[25] = tested on: Platelet; assay: Antiaggregating activity in Homo sapiens (human) platelet rich plasma assessed as inhibition of collagen-induced platelet aggregation at 50 uM incubated for 4 min prior to collagen-induction measured for 5.5 min by turbidometric analysis; type: functional, cell-free
[26] = tested on: Platelet; assay: Antiaggregating activity in Homo sapiens (human) platelet rich plasma assessed as inhibition of adrenaline-induced platelet aggregation at 2 uM incubated for 4 min prior to adrenaline-induction measured for 5.5 min by turbidometric analysis; type: functional, cell-free
[27] = Antiaggregating activity in Homo sapiens (human) platelet rich plasma assessed as collagen-induced platelet aggregation at 0.5 uM incubated for 4 min prior to collagen-induction measured for 5.5 min by turbidometric analysis (reference value: 50 to 98%); type: functional
[28] = tested on: Platelet; assay: Antiaggregating activity in Homo sapiens (human) platelet rich plasma assessed as inhibition of adrenaline-induced platelet aggregation at 0.5 uM incubated for 4 min prior to adrenaline-induction measured for 5.5 min by turbidometric analysis; type: functional, cell-free
[29] = tested on: Platelet; assay: Antiaggregating activity in Homo sapiens (human) platelet rich plasma assessed as inhibition of adrenaline-induced platelet aggregation at 1 uM incubated for 4 min prior to adrenaline-induction measured for 5.5 min by turbidometric analysis; type: functional, cell-free
[30] = tested on: Platelet; assay: Antiaggregating activity in Homo sapiens (human) platelet rich plasma assessed as inhibition of ADP-induced platelet aggregation at 0.8 uM incubated for 4 min prior to ADP-induction measured for 5.5 min by turbidometric analysis; type: functional, cell-free
[31] = Antiaggregating activity in Homo sapiens (human) platelet rich plasma assessed as ristocetin-induced platelet aggregation at 0.1 uM incubated for 4 min prior to ristocetin-induction measured for 5.5 min by turbidometric analysis (reference value: 65 to 99%); type: functional
[32] = tested on: Platelet; assay: Antiaggregating activity in Homo sapiens (human) platelet rich plasma assessed as inhibition of arachidonic acid-induced platelet aggregation at 0.8 uM incubated for 4 min prior to arachidonic acid-induction measured for 5.5 min by turbidometric analysis; type: functional, cell-free
[33] = tested on: Platelet; assay: Antiaggregating activity in Homo sapiens (human) platelet rich plasma assessed as inhibition of adrenaline-induced platelet aggregation at 0.8 uM incubated for 4 min prior to adrenaline-induction measured for 5.5 min by turbidometric analysis; type: functional, cell-free
[34] = tested on: Platelet; assay: Antiaggregating activity in Homo sapiens (human) platelet rich plasma assessed as inhibition of ristocetin-induced platelet aggregation at 2 uM incubated for 4 min prior to ristocetin-induction measured for 5.5 min by turbidometric analysis; type: functional, cell-free
[35] = tested on: Platelet; assay: Antiaggregating activity in Homo sapiens (human) platelet rich plasma assessed as inhibition of arachidonic acid-induced platelet aggregation at 2 uM incubated for 4 min prior to arachidonic acid-induction measured for 5.5 min by turbidometric analysis; type: functional, cell-free
[36] = Antiaggregating activity in Homo sapiens (human) platelet rich plasma assessed as ADP-induced platelet aggregation at 0.1 uM incubated for 4 min prior to ADP-induction measured for 5.5 min by turbidometric analysis (reference value: 54 to 88%); type: functional
[37] = Antiaggregating activity in Homo sapiens (human) platelet rich plasma assessed as arachidonic acid-induced platelet aggregation at 0.1 uM incubated for 4 min prior to arachidonic acid-induction measured for 5.5 min by turbidometric analysis (reference value: 55 to 100%); type: functional
[38] = tested on: Platelet; assay: Antiaggregating activity in Homo sapiens (human) platelet rich plasma assessed as inhibition of ADP-induced platelet aggregation at 2 uM incubated for 4 min prior to ADP-induction measured for 5.5 min by turbidometric analysis; type: functional, cell-free
[39] = tested on: Platelet; assay: Antiaggregating activity in Homo sapiens (human) platelet rich plasma assessed as inhibition of collagen-induced platelet aggregation at 0.8 uM incubated for 4 min prior to collagen-induction measured for 5.5 min by turbidometric analysis; type: functional, cell-free
[40] = Antiaggregating activity in Homo sapiens (human) platelet rich plasma assessed as ristocetin-induced platelet aggregation at 0.8 uM incubated for 4 min prior to ristocetin-induction measured for 5.5 min by turbidometric analysis (reference value: 65 to 99%); type: functional
[41] = Antiaggregating activity in Homo sapiens (human) platelet rich plasma assessed as collagen-induced platelet aggregation at 0.1 uM incubated for 4 min prior to collagen-induction measured for 5.5 min by turbidometric analysis (reference value: 50 to 98%); type: functional
[42] = tested on: Platelet; assay: Antiaggregating activity in Homo sapiens (human) platelet rich plasma assessed as inhibition of ADP-induced platelet aggregation at 1 uM incubated for 4 min prior to ADP-induction measured for 5.5 min by turbidometric analysis; type: functional, cell-free
[43] = Antiaggregating activity in Homo sapiens (human) platelet rich plasma assessed as ristocetin-induced platelet aggregation at 0.5 uM incubated for 4 min prior to ristocetin-induction measured for 5.5 min by turbidometric analysis (reference value: 65 to 99%); type: functional
[44] = Antiaggregating activity in Homo sapiens (human) platelet rich plasma assessed as arachidonic acid-induced platelet aggregation at 0.5 uM incubated for 4 min prior to arachidonic acid-induction measured for 5.5 min by turbidometric analysis (reference value: 55 to 100%); type: functional
[45] = Antiaggregating activity in Homo sapiens (human) platelet rich plasma assessed as ADP-induced platelet aggregation at 0.5 uM incubated for 4 min prior to ADP-induction measured for 5.5 min by turbidometric analysis (reference value: 54 to 88%); type: functional
[46] = tested on: Platelet; assay: Antiaggregating activity in Homo sapiens (human) platelet rich plasma assessed as inhibition of collagen-induced platelet aggregation at 2 uM incubated for 4 min prior to collagen-induction measured for 5.5 min by turbidometric analysis; type: functional, cell-free
[47] = tested on: Platelet; assay: Antiaggregating activity in Homo sapiens (human) platelet rich plasma assessed as inhibition of collagen-induced platelet aggregation at 1 uM incubated for 4 min prior to collagen-induction measured for 5.5 min by turbidometric analysis; type: functional, cell-free
[48] = tested on: Platelet; assay: Antiaggregating activity in Homo sapiens (human) platelet rich plasma assessed as inhibition of arachidonic acid-induced platelet aggregation at 1 uM incubated for 4 min prior to arachidonic acid-induction measured for 5.5 min by turbidometric analysis; type: functional, cell-free
[49] = tested on: Platelet; assay: Antiaggregating activity in Homo sapiens (human) platelet rich plasma assessed as inhibition of adrenaline-induced platelet aggregation at 0.1 uM incubated for 4 min prior to adrenaline-induction measured for 5.5 min by turbidometric analysis; type: functional, cell-free

## O=C(c1ccc[n+](Cc2ccc(C[n+]3cccc(C(=O)N4CCN(c5ccccc5Cl)CC4)c3)cc2)c1)N1CCN(c2ccccc2Cl)CC1.[Br-].[Br-]
[1]
  Activity: 78%
[2]
  Activity: 40%
[3]
  Activity: 21%
[4]
  inhibition: Active
[5]
  Activity: 26%
[6]
  Activity: 91%
[7]
  Activity: 13%
[8]
  Activity: 22%
[9]
  Activity: 16%
[10]
  Activity: 84%
[11]
  inhibition: Active
[12]
  inhibition: Active
[13]
  Activity: 79%
[14]
  Activity: 51%
[15]
  Activity: 65%

## O=C(c1ccc[n+](Cc2ccc(C[n+]3cccc(C(=O)N4CCN(c5ncccn5)CC4)c3)cc2)c1)N1CCN(c2ncccn2)CC1.[Br-].[Br-]
[16]
  Activity: 71%
[1]
  Activity: 78%
[17]
  inhibition: Active
[18]
  Activity: 28%
[19]
  Activity: 82%
[2]
  Activity: 70%
[20]
  inhibition: Active
[6]
  Activity: 70%
[21]
  Activity: 73%
[22]
  Activity: 82%
[8]
  Activity: 73%
[23]
  inhibition: Active
[24]
  Activity: 71%
[10]
  Activity: 73%
[25]
  inhibition: Active

## COc1cc(C(=O)N2CCCC(C(=O)N3CCN(c4ncccn4)CC3)C2)cc(OC)c1OC.Cl (stereo not given)
[26]
  inhibition: Active
[27]
  Activity: 78%
[28]
  inhibition: Active
[29]
  inhibition: Active
[1]
  Activity: 75%
[30]
  inhibition: Active
[31]
  Activity: 77%
[32]
  inhibition: Active
[33]
  inhibition: Active
[34]
  inhibition: Active
[35]
  inhibition: Active
[36]
  Activity: 72%
[37]
  Activity: 76%
[38]
  inhibition: Active
[39]
  inhibition: Active
[40]
  Activity: 55%
[41]
  Activity: 67%
[42]
  inhibition: Active
[43]
  Activity: 68%
[44]
  Activity: 54%
[45]
  Activity: 50%
[46]
  inhibition: Active
[47]
  inhibition: Active
[48]
  inhibition: Active
[49]
  inhibition: Active
